These results are taken from US20230365577A1, “Photodynamic Therapy and Diagnosis” (RMW CHO Group Limited, priority 2020, published 2023).

Structures are written as SMILES. Where a name gives a salt, the structure may show the parent alone. Read-outs that look alike come from different tables or passages of the source.

Data set [1] concerns 4T1 murine breast cancer cells. Briefly: Tumour localisation and retention, model 1 (subcutaneous 4T1 tumours). It counts as in vivo, Balb/C wild type mice. To be noted: 0.1 mg/kg IT, primary breast tumours, IVIS fluorescence. As to the method: Model 1 used Balb/C wild type mice implanted subcutaneously with 10^4×4T1 murine breast cancer cells. When tumours reached a palpable size (˜3-6 mm diameter) mice received compound 6 by either oral gavage (ORAL: 2.5 mg/kg), intravenous injection (IV: 1.0 mg/kg), or intratumoral injection (IT: 1.0 mg/kg in […]). To establish compound 6 localisation, mice were imaged using an IVIS Lumina III In Vivo Imaging System (Perkin Elmer) to detect fluorescence at 660 nm when illuminated under blue (400-460 nm) light.
In a second experiment, the localisation of compound 6 at 24 hours post-administration was compared to that of Talaporfin sodium and 5-Aminolevulinic acid (5-ALA), with all compounds injected at 0.1 mg/kg IT. Fluorescence measurements were made using an IVIS Lumina III instrument (as above).

For data set [2], the system named is SKOV3 ovarian cancer cells. Briefly: Inherent cytotoxicity (dark toxicity) in SKOV3 cells (AlamarBlue viability). The note with it: human, 24 h. It counts as cell-based, Human. As to the method:
(§1) Human ovarian cancer cell line SKOV3 (ATCC #HTB-77) was maintained in Dulbecco's Modified Eagle Medium/Nutrient Mixture F-12 (DMEM/F-12), supplemented with 10% v/v Fetal Bovine Serum, 100 U/mL penicillin and 100 µg/mL streptomycin. Monolayer cultures were grown in a humidified incubator at 37° C. with 5% CO2.
(§2) For in vitro experiments, photosensitizers (stock solution 5.5 mM in 100% DMSO) were diluted in cell culture media (Dulbecco's Modified Eagle Medium/Nutrient Mixture F-12) supplemented with 10% v/v Fetal Bovine Serum, 100 U/mL penicillin, 100 µg/mL streptomycin and 10% w/v Kollidon-12. Once cells had reached ˜80% confluence, spent media was replaced with media containing photosensitizer and cells were incubated for the desired period of time to allow photosensitizer uptake.
SKOV3 cells were seeded in 96-well black wall plates (Greiner #655090) at a cell density of 5000 cells in 100 μl culture medium per well. On reaching ˜60% confluence, media was aspirated and replaced with fresh media containing the relevant phyllochlorin analogue from 0-100 μM in DMSO. Cells were incubated for a further 24 hours, allowing uptake of phyllochlorin analogues.
To test for inherent cytotoxicity (i.e. “dark toxicity”) of the phyllochlorin analogue the culture media was replaced after 24 hours with fresh media containing 10% (v/v) AlamarBlue Cell Viability Reagent (ThermoFisher) and cells incubated at 37° C. for 6 hours. Untreated cells were used as a control. Fluorescence (Ex 555 nm/Em 596 nm) was measured using a Cytation 3 Multimode Plate Reader (Biotek), and cytotoxicity assessed according to the % viable cells remaining. All measurements were made in quadruplicate.
(§3) For comparative purposes, phyllochlorin analogues were tested and compared against both chlorin e4 disodium and Talaporfin sodium, a clinically approved photosensitizer used in the photodynamic treatment of lung cancers. Phototoxicity IC90 values and dark toxicity IC10 values were calculated using a log[inhibitor]-vs normalized response dose curve with variable slope, using the formula Y=100/(1+(IC90/X)^HillSlope (phototoxicity IC90) or Y=100/(1+(IC10/X)^HillSlope (dark toxicity IC10).

Data set [3] in a line: Singlet oxygen (1O2) production rate. It counts as physicochemical. From the text:
The production of singlet oxygen (^1O2), cellular phototoxicity and light-independent cytotoxicity (“dark toxicity”) of a number of phyllochlorin analogues were compared against chlorin e4 disodium and Talaporfin sodium (mono-L-aspartyl chlorin e6), the active ingredient of Laserphyrin™.

Data set [4] relates to SKOV3 ovarian cancer cells. Briefly: Phototoxicity in SKOV3 cells (652 nm laser, AlamarBlue viability). It counts as cell-based, Human. The note with it: Homo sapiens, SK-OV-3, light or radiation study, 24 h uptake, 652 nm laser 50 mW/cm2 5 mins (15 J/cm2), viability 24 h later. The method, then:
as §1, §2
SKOV3 cells were seeded in 96-well black wall plates (Greiner #655090) at a cell density of 5000 cells in 100 μl culture medium per well. On reaching ˜60% confluence, so media was aspirated and replaced with fresh media containing the relevant phyllochlorin analogue from 0-100 μM in DMSO. Cells were incubated for a further 24 hours, allowing uptake of phyllochlorin analogues.
To test for phototoxicity, cells incubated with phyllochlorin analogues (0-10 μM in DMSO) had culture media replaced after 24 hours (as above) and were then exposed to a 652 nm laser (Invion) with laser density at 50 mW/cm^2 for 5 mins (total 15 J/cm^2). Following activation, cells were cultured for a further 24 hours. Media was then replaced with fresh media containing AlamarBlue, and % viable cells remaining assessed as above. Controls included cells treated with phyllochlorin analogues but not activated by laser light; cells without phyllochlorin analogue treatment but with laser light; and untreated controls. All measurements were made in quadruplicate.
as §3
In general terms: Alamar Blue is a resazurin reagent that responds to reducing activity.

Where [5] appears, read: read-out: Cellular Toxicity: Phototoxicity IC90, SKOV3.
Setting [6] is: SKOV3, read-out: Cellular Toxicity: Phototoxicity IC90.

Regarding `NCC(=O)CCC(=O)O` [Compound 5-ALA, 5-Aminolevulinic acid, reference compound], in data set [1], the “Tumour localisation at 24 hours post-administration” value is given as “could not be accurately detected”.

Broadly, the IC90 is the concentration at which the effect reaches the 90% level. Turning to `C=Cc1c(C)c2cc3nc(c(C)c4cc(C)c(cc5nc(cc1[nH]2)C(C)=C5CC)[nH]4)[C@@H](CCC(=O)N(C)CCCS[C@@H]1O[C@H](COC(=O)[C@@H](N)C(C)C)[C@@H](O)[C@H](O)[C@H]1O)[C@@H]3C` [Compound 12, ((2R,3S,4S,5R,6S)-6-((3-(3-((7S,8S)-18-ethyl-2,5,8,12,17-pentamethyl-13-vinyl-7H,8H-porphyrin-7-yl)-N-methylpropanamido)propyl)thio)-3,4,5-trihydroxytetrahydro-2H-pyran-2-yl)methyl L-valinate hydrochloride], in data set [2], the “Cellular Toxicity: Dark toxicity IC10” value was 28360 nM. Moreover, the “Singlet Oxygen Production (slope) 1O2” value in data set [3] stood at 1121.0. Moreover, in data set [4] (setting [5]), the IC90 was found to be 180 nM.

With `C=Cc1c(C)c2cc3nc(c(C)c4cc(C)c(cc5nc(cc1[nH]2)C(C)=C5CC)[nH]4)[C@@H](CCC(=O)N[C@H]1C(O)O[C@H](CO)[C@@H](O)[C@@H]1O)[C@@H]3C` (stereo partly shown) [Compound 13, phyllochlorin 2-deoxyglucosamine-propylamide], in data set [2], the “Cellular Toxicity: Dark toxicity IC10” value was 13020 nM. Also, the “Singlet Oxygen Production (slope) 1O2” value in data set [3] came out at 1423.0. For the same molecule, the IC90 in data set [4] (setting [5]) amounted to 120 nM.

With `C=Cc1c(C)c2cc3nc(c(C)c4cc(C)c(cc5nc(cc1[nH]2)C(C)=C5CC)[nH]4)[C@@H](CCC(=O)N(C)CCOCCO[C@@H]1O[C@H](CO)[C@@H](O)[C@H](O)[C@H]1O)[C@@H]3C` [Compound 14, 3-((7S,8S)-18-ethyl-2,5,8,12,17-pentamethyl-13-vinyl-7H,8H-porphyrin-7-yl)-N-methyl-N-(2-(2-(((2R,3R,4S,5S,6R)-3,4,5-trihydroxy-6-(hydroxymethyl)tetrahydro-2H-pyran-2-yl)oxy)ethoxy)ethyl)propanamide], the “Cellular Toxicity: Dark toxicity IC10” value in data set [2] turned out to be 22790 nM. Also, the “Singlet Oxygen Production (slope) 1O2” value in data set [3] is on record as 1293.0. Also, the IC90 in data set [4] (setting [6]) was 170 nM.

Turning to `C=Cc1c(C)c2cc3nc(c(C)c4cc(C)c(cc5nc(cc1[nH]2)C(C)=C5CC)[nH]4)[C@@H](CCC(=O)N(C)CCCO[C@@H]1O[C@H](CO)[C@@H](O)[C@H](O)[C@H]1O)[C@@H]3C` [Compound 15, 3-((7S,8S)-18-ethyl-2,5,8,12,17-pentamethyl-13-vinyl-7H,8H-porphyrin-7-yl)-N-methyl-N-(3-(((2R,3R,4S,5S,6R)-3,4,5-trihydroxy-6-(hydroxymethyl)tetrahydro-2H-pyran-2-yl)oxy)propyl)propanamide], the “Cellular Toxicity: Dark toxicity IC10” value in data set [2] stood at 14600 nM. For the same molecule, the “Singlet Oxygen Production (slope) 1O2” value in data set [3] worked out at 976.4. The IC90 in data set [4] (setting [6]) was 230 nM.

Turning to `C=Cc1c(C)c2cc3nc(c(C)c4cc(C)c(cc5nc(cc1[nH]2)C(C)=C5CC)[nH]4)[C@@H](CCC(=O)N(C)CCCS[C@H]1O[C@H](CO)[C@@H](O)[C@H](O)[C@@H]1O)[C@@H]3C` [Compound 16, phyllochlorin α-D-1-thiomannose-N-methylpropylamide conjugate], the “Cellular Toxicity: Dark toxicity IC10” value in data set [2] was 28640 nM. The “Singlet Oxygen Production (slope) 1O2” value in data set [3] is reported as 884.1. Moreover, the IC90 in data set [4] (setting [6]) worked out at 250 nM.

For the molecule `C=Cc1c(C)c2cc3nc(c(C)c4cc(C)c(cc5nc(cc1[nH]2)C(C)=C5CC)[nH]4)[C@@H](CCC(=O)N(C)CCCS[C@@H]1O[C@H](CO)[C@@H](O)[C@H](O)[C@@H]1O)[C@@H]3C` [Compound 17, phyllochlorin β-D-1-thiomannose-N-methylpropylamide conjugate], in data set [2], the “Cellular Toxicity: Dark toxicity IC10” value worked out at 76270 nM. Further, in data set [3], the “Singlet Oxygen Production (slope) 1O2” value was 1265.0. For the same molecule, the IC90 in data set [4] (setting [6]) was determined as 220 nM.

As for `C=Cc1c(C)c2cc3nc(c(C)c4cc(C)c(cc5nc(cc1[nH]2)C(C)=C5CC)[nH]4)[C@@H](CCC(=O)N(C)CCOCCO)[C@@H]3C` [Compound 18, 3-((7S,8S)-18-ethyl-2,5,8,12,17-pentamethyl-13-vinyl-7H,8H-porphyrin-7-yl)-N-(2-(2-hydroxyethoxy)ethyl)-N-methylpropanamide], in data set [2], the “Cellular Toxicity: Dark toxicity IC10” value is 32300 nM. For the same molecule, in data set [3], the “Singlet Oxygen Production (slope) 1O2” value is 1060.0. In addition, the IC90 in data set [4] (setting [6]) was found to be 100 nM.

In the case of `C=Cc1c(C)c2cc3nc(c(C)c4cc(C)c(cc5nc(cc1[nH]2)C(C)=C5CC)[nH]4)[C@@H](CCC(=O)NCCOCCO[C@@H]1O[C@H](CO)[C@@H](O)[C@H](O)[C@H]1O)[C@@H]3C` [Compound 20, 3-((7S,8S)-18-ethyl-2,5,8,12,17-pentamethyl-13-vinyl-7H,8H-porphyrin-7-yl)-N-(2-(2-(((2R,3R,4S,5S,6R)-3,4,5-trihydroxy-6-(hydroxymethyl)tetrahydro-2H-pyran-2-yl)oxy)ethoxy)ethyl)propanamide], the “Cellular Toxicity: Dark toxicity IC10” value in data set [2] was 46230 nM. In addition, in data set [3], the “Singlet Oxygen Production (slope) 1O2” value was 1210.0. Further, in data set [4] (setting [6]), the IC90 is 230 nM.

Turning to `C=Cc1c(C)c2cc3nc(c(CC(=O)N[C@@H](CC(=O)O)C(=O)O)c4[nH]c(cc5nc(cc1[nH]2)C(C)=C5CC)c(C)c4C(=O)O)[C@@H](CCC(=O)O)[C@@H]3C` [Talaporfin sodium, mono-L-aspartyl chlorin e6, reference compound], in data set [2], the “Cellular Toxicity: Dark toxicity IC10” value is 11100 nM. In addition, the “Singlet Oxygen Production (slope) 1O2” value in data set [3] was found to be 736.7. In addition, the IC90 in data set [4] (setting [6]) turned out to be 22800 nM.
